Key:
Assay in all cases: Standardized radiometric kinase assays, percentage of activity at 0.5 μM;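 also: Read-out is ³³P-labelled substrate protein phosphorylated by each kinase, captured on filters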
[1] = target: each individual kinase of the panel (Homo sapiens, UniProt O00418)
[2] = target: each individual kinase of the panel (Homo sapiens, UniProt Q9P1W9)
[3] = target: each individual kinase of the panel (Homo sapiens, UniProt P43403)
[4] = target: each individual kinase of the panel (Homo sapiens, UniProt Q9BZL6)
[5] = target: each individual kinase of the panel (Homo sapiens, UniProt P00533)
[6] = target: each individual kinase of the panel (Homo sapiens, UniProt P23443)
[7] = target: each individual kinase of the panel (Homo sapiens, UniProt Q15303)
[8] = target: each individual kinase of the panel (Homo sapiens, UniProt Q15349)
[9] = target: each individual kinase of the panel (Homo sapiens, UniProt P00533, T790M)
[10] = target: each individual kinase of the panel (Homo sapiens, UniProt O14965)
[11] = target: each individual kinase of the panel (Homo sapiens, UniProt O14733)
Chain of each individual kinase of the panel (Homo sapiens, UniProt O14733) (O14733 2-419 limits assumed): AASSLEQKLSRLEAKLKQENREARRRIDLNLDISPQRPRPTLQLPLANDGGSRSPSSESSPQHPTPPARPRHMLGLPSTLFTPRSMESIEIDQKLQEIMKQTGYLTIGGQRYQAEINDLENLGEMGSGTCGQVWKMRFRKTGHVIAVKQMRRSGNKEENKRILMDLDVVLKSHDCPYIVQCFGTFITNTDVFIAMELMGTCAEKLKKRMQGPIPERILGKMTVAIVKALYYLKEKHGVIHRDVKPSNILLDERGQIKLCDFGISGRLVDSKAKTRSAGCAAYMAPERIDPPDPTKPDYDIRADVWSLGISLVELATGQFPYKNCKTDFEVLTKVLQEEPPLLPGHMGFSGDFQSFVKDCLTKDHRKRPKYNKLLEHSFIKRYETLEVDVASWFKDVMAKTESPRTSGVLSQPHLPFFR

[12] = target: each individual kinase of the panel (Homo sapiens, UniProt P36888)
Chain of each individual kinase of the panel (Homo sapiens, UniProt P36888) (P36888 27-993 limits assumed): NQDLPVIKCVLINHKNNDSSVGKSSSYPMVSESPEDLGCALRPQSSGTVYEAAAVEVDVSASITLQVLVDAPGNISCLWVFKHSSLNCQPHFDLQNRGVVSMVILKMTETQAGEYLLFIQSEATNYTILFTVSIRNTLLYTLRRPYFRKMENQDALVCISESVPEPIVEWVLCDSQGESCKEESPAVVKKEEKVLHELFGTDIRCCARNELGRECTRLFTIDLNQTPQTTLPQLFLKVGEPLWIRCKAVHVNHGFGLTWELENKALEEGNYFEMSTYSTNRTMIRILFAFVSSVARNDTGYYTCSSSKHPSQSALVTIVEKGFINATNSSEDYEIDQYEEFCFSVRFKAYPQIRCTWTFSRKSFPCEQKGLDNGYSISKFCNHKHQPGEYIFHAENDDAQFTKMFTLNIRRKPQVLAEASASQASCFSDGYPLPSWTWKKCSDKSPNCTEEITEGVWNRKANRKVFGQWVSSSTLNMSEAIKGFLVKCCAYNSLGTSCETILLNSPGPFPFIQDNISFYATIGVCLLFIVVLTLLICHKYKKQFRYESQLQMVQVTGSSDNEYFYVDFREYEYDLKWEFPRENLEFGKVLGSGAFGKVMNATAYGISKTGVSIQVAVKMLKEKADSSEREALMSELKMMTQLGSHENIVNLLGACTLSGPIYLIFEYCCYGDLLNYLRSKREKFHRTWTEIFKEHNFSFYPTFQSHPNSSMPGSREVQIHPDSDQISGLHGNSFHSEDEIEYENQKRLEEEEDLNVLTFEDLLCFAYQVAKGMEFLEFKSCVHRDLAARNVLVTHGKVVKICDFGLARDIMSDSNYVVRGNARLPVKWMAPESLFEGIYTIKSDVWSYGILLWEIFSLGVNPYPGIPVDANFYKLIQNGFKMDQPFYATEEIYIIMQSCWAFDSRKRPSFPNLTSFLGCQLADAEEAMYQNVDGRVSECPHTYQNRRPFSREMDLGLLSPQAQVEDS

[13] = target: each individual kinase of the panel (Homo sapiens, UniProt P10721)
[14] = target: each individual kinase of the panel (Homo sapiens, UniProt O14757)
[15] = target: each individual kinase of the panel (Homo sapiens, UniProt P04629)
[16] = target: each individual kinase of the panel (Homo sapiens, UniProt P78368)
[17] = target: each individual kinase of the panel (Homo sapiens, UniProt P17948)
[18] = target: each individual kinase of the panel (Homo sapiens, UniProt P06241)
[19] = target: each individual kinase of the panel (Homo sapiens, UniProt P54760)
Chain of each individual kinase of the panel (Homo sapiens, UniProt P54760) (P54760 16-987 limits assumed): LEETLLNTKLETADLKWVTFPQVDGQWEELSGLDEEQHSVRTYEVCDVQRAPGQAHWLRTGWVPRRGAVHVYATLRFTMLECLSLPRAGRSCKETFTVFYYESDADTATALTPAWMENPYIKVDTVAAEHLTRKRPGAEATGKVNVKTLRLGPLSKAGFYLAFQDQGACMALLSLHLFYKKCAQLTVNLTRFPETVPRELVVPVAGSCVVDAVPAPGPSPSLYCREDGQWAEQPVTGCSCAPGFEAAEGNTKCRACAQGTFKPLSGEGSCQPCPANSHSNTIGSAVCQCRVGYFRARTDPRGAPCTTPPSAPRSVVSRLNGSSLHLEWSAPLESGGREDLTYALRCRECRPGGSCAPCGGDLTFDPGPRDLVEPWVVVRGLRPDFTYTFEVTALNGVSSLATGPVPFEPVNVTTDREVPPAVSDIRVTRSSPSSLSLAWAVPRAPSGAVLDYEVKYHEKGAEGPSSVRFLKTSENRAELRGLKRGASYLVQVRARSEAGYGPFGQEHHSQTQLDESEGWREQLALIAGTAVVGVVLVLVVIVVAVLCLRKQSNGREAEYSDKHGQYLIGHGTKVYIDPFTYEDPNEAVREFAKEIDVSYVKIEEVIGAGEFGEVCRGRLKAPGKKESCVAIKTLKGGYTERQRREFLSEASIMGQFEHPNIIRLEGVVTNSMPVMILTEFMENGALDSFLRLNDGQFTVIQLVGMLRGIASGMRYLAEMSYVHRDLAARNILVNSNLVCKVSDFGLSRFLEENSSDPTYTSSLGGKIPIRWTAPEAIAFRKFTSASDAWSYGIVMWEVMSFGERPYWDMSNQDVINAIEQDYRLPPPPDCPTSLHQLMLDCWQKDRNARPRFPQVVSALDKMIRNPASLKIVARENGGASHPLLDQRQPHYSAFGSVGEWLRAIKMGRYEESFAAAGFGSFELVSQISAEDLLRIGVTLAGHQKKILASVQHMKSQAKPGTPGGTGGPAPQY

[20] = target: each individual kinase of the panel (Homo sapiens, UniProt O60674)
[21] = target: each individual kinase of the panel (Homo sapiens, UniProt Q9H422)
[22] = target: each individual kinase of the panel (Homo sapiens, UniProt Q05397)
[23] = target: each individual kinase of the panel (Homo sapiens, UniProt P31749)
[24] = target: each individual kinase of the panel (Homo sapiens, UniProt P17612)
[25] = target: each individual kinase of the panel (Homo sapiens, UniProt P08922)
[26] = target: each individual kinase of the panel (Homo sapiens, UniProt P07333)
Chain of each individual kinase of the panel (Homo sapiens, UniProt P07333) (P07333 20-972 limits assumed): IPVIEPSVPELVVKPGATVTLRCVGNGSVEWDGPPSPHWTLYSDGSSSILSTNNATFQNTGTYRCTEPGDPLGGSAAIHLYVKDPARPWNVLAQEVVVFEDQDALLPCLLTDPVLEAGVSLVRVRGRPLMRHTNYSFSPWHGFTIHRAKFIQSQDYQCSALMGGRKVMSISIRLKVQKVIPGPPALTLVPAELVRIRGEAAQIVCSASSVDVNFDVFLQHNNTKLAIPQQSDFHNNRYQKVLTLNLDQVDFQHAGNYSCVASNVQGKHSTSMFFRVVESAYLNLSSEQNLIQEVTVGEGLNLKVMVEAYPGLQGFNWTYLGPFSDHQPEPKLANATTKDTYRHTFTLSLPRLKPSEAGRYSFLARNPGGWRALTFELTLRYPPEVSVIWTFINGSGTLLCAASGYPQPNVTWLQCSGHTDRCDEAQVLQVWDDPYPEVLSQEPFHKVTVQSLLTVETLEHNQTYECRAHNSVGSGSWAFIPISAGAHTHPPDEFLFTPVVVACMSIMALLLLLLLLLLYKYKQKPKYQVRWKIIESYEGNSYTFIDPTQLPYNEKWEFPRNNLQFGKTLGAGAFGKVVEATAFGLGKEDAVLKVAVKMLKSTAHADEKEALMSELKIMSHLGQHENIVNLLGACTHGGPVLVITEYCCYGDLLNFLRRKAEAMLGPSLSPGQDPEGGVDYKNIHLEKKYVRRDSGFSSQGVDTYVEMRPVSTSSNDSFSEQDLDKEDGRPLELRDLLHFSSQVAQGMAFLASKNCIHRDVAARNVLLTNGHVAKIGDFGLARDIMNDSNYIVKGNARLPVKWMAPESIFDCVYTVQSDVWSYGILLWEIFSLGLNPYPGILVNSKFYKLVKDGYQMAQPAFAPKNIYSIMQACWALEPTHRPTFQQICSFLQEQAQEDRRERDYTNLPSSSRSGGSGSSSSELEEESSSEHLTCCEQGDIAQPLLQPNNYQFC

[27] = target: each individual kinase of the panel (Homo sapiens, UniProt O94804)
[28] = target: each individual kinase of the panel (Homo sapiens, UniProt Q9NYY3)
[29] = target: each individual kinase of the panel (Homo sapiens, UniProt P06213)
Chain of each individual kinase of the panel (Homo sapiens, UniProt P06213) (P06213 28-758 limits assumed): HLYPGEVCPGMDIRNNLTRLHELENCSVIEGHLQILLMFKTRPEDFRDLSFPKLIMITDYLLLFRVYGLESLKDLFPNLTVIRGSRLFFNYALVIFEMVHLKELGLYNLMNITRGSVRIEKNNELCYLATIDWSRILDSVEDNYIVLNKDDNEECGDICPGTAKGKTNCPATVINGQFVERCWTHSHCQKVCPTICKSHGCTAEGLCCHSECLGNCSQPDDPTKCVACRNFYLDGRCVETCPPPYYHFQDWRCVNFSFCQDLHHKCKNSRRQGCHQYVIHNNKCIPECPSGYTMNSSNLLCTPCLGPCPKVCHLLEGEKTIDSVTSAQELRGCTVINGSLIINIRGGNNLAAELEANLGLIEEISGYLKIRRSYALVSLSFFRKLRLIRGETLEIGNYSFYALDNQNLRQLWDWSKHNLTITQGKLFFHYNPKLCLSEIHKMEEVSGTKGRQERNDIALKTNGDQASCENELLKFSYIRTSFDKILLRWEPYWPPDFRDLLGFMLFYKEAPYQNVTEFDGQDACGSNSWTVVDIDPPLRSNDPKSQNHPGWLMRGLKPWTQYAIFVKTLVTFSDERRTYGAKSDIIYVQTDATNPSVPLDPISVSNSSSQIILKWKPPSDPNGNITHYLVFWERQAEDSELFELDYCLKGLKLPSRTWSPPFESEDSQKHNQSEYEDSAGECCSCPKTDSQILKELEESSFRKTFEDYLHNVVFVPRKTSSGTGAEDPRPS
Chain of each individual kinase of the panel (Homo sapiens, UniProt P06213) (P06213 763-1382 limits assumed): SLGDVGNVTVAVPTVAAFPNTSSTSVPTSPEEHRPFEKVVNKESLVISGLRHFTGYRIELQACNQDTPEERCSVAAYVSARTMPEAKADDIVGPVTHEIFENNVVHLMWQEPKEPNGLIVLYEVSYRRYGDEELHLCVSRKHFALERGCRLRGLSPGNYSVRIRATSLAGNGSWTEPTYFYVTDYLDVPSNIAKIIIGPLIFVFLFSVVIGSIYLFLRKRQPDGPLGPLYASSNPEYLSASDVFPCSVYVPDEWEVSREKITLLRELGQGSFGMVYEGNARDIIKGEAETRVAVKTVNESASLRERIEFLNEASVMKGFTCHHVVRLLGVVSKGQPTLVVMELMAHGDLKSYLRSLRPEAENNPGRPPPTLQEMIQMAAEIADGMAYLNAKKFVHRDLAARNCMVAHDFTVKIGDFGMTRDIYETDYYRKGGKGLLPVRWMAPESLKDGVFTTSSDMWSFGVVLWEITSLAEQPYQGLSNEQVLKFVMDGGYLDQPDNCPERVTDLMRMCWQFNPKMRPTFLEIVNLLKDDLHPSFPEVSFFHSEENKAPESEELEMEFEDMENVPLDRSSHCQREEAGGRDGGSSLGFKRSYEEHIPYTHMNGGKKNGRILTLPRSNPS

Compound: C#Cc1cccc(Nc2nc3cc(C(=O)O)ccc3c3cnccc23)c1 [drawing 1137]
- eEF−2K(h) percentage of activity [1]: −8%
- PIM2 percentage of activity [2]: 6%
- ZAP70 percentage of activity [3]: 2%
- PRKd_nM2 percentage of activity [4]: 0%
- EGFR percentage of activity [5]: 24%
- p70S6K percentage of activity [6]: 36%
- ERBB4 percentage of activity [7]: 17%
- RPS6KA2 percentage of activity [8]: 59%
- EGFR(T790M) percentage of activity [9]: 16%
- AURKA percentage of activity [10]: 3%
- MAP2K7 beta percentage of activity [11]: 7%
- FLT3 percentage of activity [12]: 90%
- cKit(h) percentage of activity [13]: 15%
- CHK1 percentage of activity [14]: 13%
- TRKA percentage of activity [15]: 56%
- CK1 gamma 2 percentage of activity [16]: 35%
- FLT1 percentage of activity [17]: 75%
- FYN percentage of activity [18]: 18%
- EPHB4 percentage of activity [19]: −8%
- JAK2 percentage of activity [20]: 38%
- HIPK3 percentage of activity [21]: 91%
- FAK percentage of activity [22]: −2%
- AKT1 percentage of activity [23]: 7%
- PKA percentage of activity [24]: −9%
- ROS percentage of activity [25]: 5%
- CSF1R percentage of activity [26]: −12%
- LOK percentage of activity [27]: 72%
- PLK2 percentage of activity [28]: 30%
- INSR percentage of activity [29]: −7%
